Patent publication US20260337656A1, “METHODS OF SYNTHESIZING PEPTIDES WITH FREE N-TERMINAL CYSTEINE AND PRODUCTS THEREOF” (OHIO STATE INNOVATION FOUNDATION, priority 2022, published 2026)
No end group written: not given here.

Legend:
[1] = target: T1, A. sobria ProAP (Aeromonas sobria, UniProt P46547); experiment: ProAP activity assay (kinetic constants of A. sobria ProAP against selected peptide substrates); assay type: biochemical; details: role: substrate; for kcat/KM: PBS pH 7.4, 2 mM DTT, 0-500 μM peptide, 0.5-25 nM ProAP, mean ± SD of three independent sets of experiments; for change in catalytic activity on replacement of His at P3′ with Gly or Ser: peptides 1 and 9 or peptides 3 and 6 compared; for decrease in catalytic activity on substitution of Ala for Gly at P2′: peptide 6 compared with 9, peptide 10 compared with 8
T1 sequence (P46547 whole entry, added parts left off): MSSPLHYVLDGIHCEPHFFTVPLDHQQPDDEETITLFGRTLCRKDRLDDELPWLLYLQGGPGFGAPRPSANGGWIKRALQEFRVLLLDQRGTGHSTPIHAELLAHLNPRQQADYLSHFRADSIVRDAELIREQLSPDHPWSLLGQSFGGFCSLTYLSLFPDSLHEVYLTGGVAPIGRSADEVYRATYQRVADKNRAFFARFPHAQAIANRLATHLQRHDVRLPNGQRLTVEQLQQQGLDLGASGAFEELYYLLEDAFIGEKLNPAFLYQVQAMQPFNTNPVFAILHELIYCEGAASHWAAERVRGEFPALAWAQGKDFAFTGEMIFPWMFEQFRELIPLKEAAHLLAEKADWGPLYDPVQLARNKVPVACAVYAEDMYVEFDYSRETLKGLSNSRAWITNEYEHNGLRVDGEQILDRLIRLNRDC
Procedure: A typical assay reaction (total volume of 100 μL) contained PBS (10 mM Na2HPO4, 1.8 mM KH2PO4, 137 mM NaCl, 2.7 mM KCl, 2 mM DTT pH 7.4) and 0-500 μM peptide substrate. The reaction was initiated by the addition of ProAP (final concentration of 0.5-25 nM) and quenched after 5-30 min by the addition of 100 μL of 10% TFA. The reaction mixture was centrifuged at 15,000 rpm in a microcentrifuge for 5 min, and the clear supernatant was analyzed on a Waters Acquity UPLC-MS equipped with a BEH C18 column (1.7 μm, 2.1 mm I.D., 100 mm length). The column was eluted with a linear gradient of acetonitrile (0-25% over 8 min) in water containing 0.05% TFA. The percentage of substrate-to-product conversion was determined by comparing the peak areas of the remaining substrate and the reaction product (monitored at 280 nm) and kept at ≤20%. The initial rates were calculated from the conversion percentages and plotted versus [S]. Data fitting against the Michaelis-Menten equation V=Vmax[S]/(KM+[S]) or the simplified equation V=kcat[E][S]/KM (when KM>>[S]) gave the kinetic constants kcat, KM, and/or kcat/KM.
To confirm the screening results, we individually synthesized a panel of peptides and determined their kinetic properties toward A. sobria ProAP (Table 1). Peptides 1-6 are representative (preferred) sequences selected from the library, while peptide 7 is the consensus sequence based on the screening results. Peptide 8 is a variant of peptide 7, containing a proline (instead of a lysine) at the P5′ position. We anticipated that a proline residue at this position would improve the proteolytic stability of the peptide. Peptide 9 is a variant of peptide 6 (substitution of Gly for Ala at the P2′ position) and was designed to test the importance of a Gly residue at the P2′ position. Peptide 10 is also a variant of peptide 6 but contains a Pro at position P5′ (in place of Lys) to impart proteolytic stability. Peptide 11 is derived from a colorless bead during library screening (Table C) and expected to be a poor substrate of ProAP (“negative” control). All peptides contained a Tyr at the P6′ position, to facilitate concentration measurement as well as monitoring the enzymatic reactions by UPLC (at 280 nm).

[2] = target: T1, A. sobria ProAP; experiment: Proline removal from peptide 8 by ProAP before N-terminal labeling (UPLC-MS); assay type: biochemical
Procedure: Peptide (100 μM) was incubated with ProAP (4 μM) in 20 mM Tris, pH 8.5, 100 mM NaCl for 1 h at 37° C. One half of the reaction (40 μL) was set aside for later UPLC-MS analysis, while the other half was mixed with 40 μL of FAM-CO-SR (400 μM), sodium 2-mercaptoethanesulfonate (2 mM), and TCEP (2.5 mM) in PBS (H 7.5). The mixture was incubated at room temperature for 5 h and analyzed by UPLC-MS.
We first tested the feasibility of generating an N-terminal cysteine by ProAP and specific N-terminal conjugation with a peptide as substrate. […] The reaction mixture was next treated with an excess of fluorescein 2-mercaptoethanesulfonate thioester (FAM-CO-SR; 4 equivalents) in the presence of 2-mercaptoethanesulfonate (2-MES) and TCEP in a phosphate buffer (pH 7.5).

PCGHKKY-NH2 [Peptide 7, PCGHKKY]
kcat/KM [1]: 8.2 ± 0.7 ×10^5 M^−1 s^−1

PCASKAY-NH2 [Peptide 3, PCASKAY]
kcat/KM [1]: 3.8 ± 0.4 ×10^5 M^−1 s^−1
change in catalytic activity on replacement of His at P3′ with Gly or Ser [1]: ≤ 1.3 fold

PCGHKPY-NH2 [Peptide 8, PCGHKPY]
kcat/KM [1]: 8.3 ± 3.2 ×10^5 M^−1 s^−1
disappearance of peptide on treatment with ProAP ([2]; role: substrate, 100 μM peptide, 4 μM ProAP, 60 min): complete disappearance

PCGGKAY-NH2 [Peptide 1, PCGGKAY]
kcat/KM [1]: 7.0 ± 1.2 ×10^5 M^−1 s^−1
change in catalytic activity on replacement of His at P3′ with Gly or Ser [1]: ≤ 1.3 fold

PCHDETY-NH2 [Peptide 11, PCHDETY]
kcat/KM [1]: 0.038 ± 0.010 ×10^5 M^−1 s^−1
less active than peptides 1-10 ([1]; negative control compared with peptides 1-10): ~ 2 orders of magnitude

PCAHKAY-NH2 [Peptide 6, PCAHKAY]
decrease in catalytic activity on substitution of Ala for Gly at P2′ [1]: 2- to 3 fold

PCSHKGY-NH2 [Peptide 4, PCSHKGY]
kcat/KM [1]: 3.2 ± 0.1 ×10^5 M^−1 s^−1

O=C(O)CCP(CCC(=O)O)CCC(=O)O [TCEP, tris(carboxyethyl)phosphine, reference compound]
inhibition of A. sobria ProAP activity ([2]; role: inhibitor): strongly inhibits

PCEFTRY-NH2 [Peptide 5, PCEFTRY]
kcat/KM [1]: 3.2 ± 0.9 ×10^5 M^−1 s^−1

PCGSSKY-NH2 [Peptide 2, PCGSSKY]
kcat/KM [1]: 5.8 ± 1.0 ×10^5 M^−1 s^−1

PCAHKPY-NH2 [Peptide 10, PCAHKPY]
kcat/KM [1]: 2.8 ± 0.8 ×10^5 M^−1 s^−1
decrease in catalytic activity on substitution of Ala for Gly at P2′ [1]: 2- to 3 fold

PCGHKAY-NH2 [Peptide 9, PCGHKAY]
kcat/KM [1]: 7.2 ± 2.6 ×10^5 M^−1 s^−1
